Assay results reported in patent US20260317324A1, “BIFUNCTIONAL COMPOUNDS FOR DEGRADING BRAF VIA UBIQUITIN PROTEOSOME PATHWAY” (Nurix Therapeutics, Inc., priority 2023, published 2026).

How the values were obtained:
Assay type in all cases: cell-based
BRAF G469A = molecular target: T1, BRAF G469A (Homo sapiens, UniProt P15056, G469A); experiment: BRAF HiBiT degradation assay, C-terminal HiBiT-tagged BRAF G469A overexpressed in HCT-116 BRAF−/− cells (clone 34), Nano-Glo HiBiT Lytic assay; conditions: BRAF G469A (Class 2), HCT-116 BRAF−/− cells; for DC50: DC50 at 50% degradation; for Dmax: observed Dmax relative to DMSO control
T1 construct: Horizon Discovery (HCT-116 BRAF−/− cells); host or cells: HCT-116 BRAF−/− cells, clone 34, lentiviral transduction
From the text: (§1) An A375 cell line expressing a homozygous V600E mutation was purchased from ATCC (Manassas, VA, USA). An A375 clone 1F10 cell line with an endogenous C-terminal HiBiT fusion tag on BRAF V600E allele was generated internally using CRISPR-Cas9 technology and cultured in DMEM, high glucose supplemented with 10% FBS and 1× GlutaMAX. A HCT-116 BRAF−/− cell line overexpressing the C-terminal HiBiT-tagged G466V, G469A, and D594G mutants were generated by lentiviral transduction, externally at Biosettia Inc (San Diego, CA, USA). The stably transfected cells were cultured in RPMI media supplemented with 10% FBS, 1× GlutaMAX, and 0.25 μg/ml puromycin. DMEM medium, RPMI 1640 medium, GlutaMAX, fetal bovine serum (FBS), and puromycin were purchased from Gibco (Grand Island, NY, USA). HCT-116 BRAF−/− cells were purchased from Horizon Discovery (Waterbeach, UK).
(§2) The C-terminal HiBiT tagged mutant BRAF G466V, G469A, and D594G overexpressed in HCT-116 BRAF−/− cells (monoclonal cell line, cell clones 8, 34, and 63, respectively) were seeded at the density of 3,000 cells/well in 30 μL media (RPMI supplemented with 10% FBS and 1× GlutaMAX) in white opaque 384-well plates (Corning #3570) from column 1 to column 23. Wildtype HCT-116 BRAF cells were seeded in column 24 at the same cell density in 30 μL media. Cells were incubated at 37° C. with 5% CO2 for 24 h.
(§3) Intermediate compound dilution series (5-point, ranging from 5 mM to 0.5 μM, 10-fold dilutions in DMSO) were prepared in a source plate (Beckman Coulter cat. no. 001-16128). Final compound dilution series (11-point, ranging from 1 μM to 0.01 nM, half-log dilutions in DMSO) were stamped into the assay plate (Corning #3570, column 1-11 and 12-22) using the Echo Acoustic Liquid Handler (Beckman Coulter). Each compound was plated in duplicate, and the total volume of compound DMSO solution was 60 nL/well (0.2% final DMSO concentration). DMSO was included in wells A23-L23 and A24-L24. The DMSO-treated HiBiT-tagged samples served as Negative Control (NC) and the DMSO-treated wildtype samples served as Background Control (BC) for the HiBiT assay.
(§4) HiBiT signal was measured by a Nano-Glo HiBiT Lytic assay (Promega cat. no. N3050). HiBiT lytic detection reagent (Nano-Glo HiBiT Lytic Buffer with 1:50 Nano-Glo HiBiT Lytic Substrate and 1:100 LgBiT Protein, 40 μL) was added using Bravo. The mixture was incubated at room temperature, in the dark, and with gentle shaking for 10 min. Luminesce units (LU) were read on an EnVision plate reader 2105 (Perkin Elmer).
(§5) Percent protein remaining and viability remaining per sample were calculated as follows: […]
(§6) % Protein remaining values were plotted as a function of compound concentration. XC50 (DC50) values were determined by fitting curves using the following equation:
(§7) For the HiBiT degradation assay, the key parameters reported include: • The dose of compound that produces 50% degradation (DC50 at 50%): • DC50 at 50%: the Fitted X value (Conc.) at Y=50 (response) • Observed Dmax (Obs. Dmax) is the percentage protein degraded at maximal compound effect relative to DMSO-treated control: […]

BRAF D594G = molecular target: T2, BRAF D594G (Homo sapiens, UniProt P15056, D594G); experiment: BRAF HiBiT degradation assay, C-terminal HiBiT-tagged BRAF D594G overexpressed in HCT-116 BRAF−/− cells (clone 63), Nano-Glo HiBiT Lytic assay; conditions: BRAF D594G (Class 3), HCT-116 BRAF−/− cells; for DC50: DC50 at 50% degradation; for Dmax: observed Dmax relative to DMSO control
T2 construct: Horizon Discovery (HCT-116 BRAF−/− cells); host or cells: HCT-116 BRAF−/− cells, clone 63, lentiviral transduction
From the text: as §1, §2, §3, §4, §5, §6, §7

BRAF V600E = molecular target: T3, BRAF V600E (Homo sapiens, UniProt P15056, V600E); experiment: BRAF HiBiT degradation assay, C-terminal HiBiT-tagged BRAF V600E A375 cells (clone 1F10), Nano-Glo HiBiT Lytic assay; conditions: A375 (BRAF V600E, Class 1); for DC50: DC50 at 50% degradation; for Dmax: A-375, observed Dmax, % protein degraded relative to DMSO control
T3 construct: endogenous C-terminal HiBiT fusion tag on BRAF V600E allele; endogenous in cells; host or cells: A375 clone 1F10 (CRISPR-Cas9 knock-in of the HiBiT tag; parental A375 from ATCC)
In short: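 Endogenous BRAF V600E-HiBiT A375 (1F10), 10,000 cells/well, 24 h preculture; cpd 11-pt, 1 μM–0.01 nM half-log, n=2, 0.2% DMSO; HiBiT lytic detection 10 min RT; DC50 = fitted conc at Y=50; Obs. Dmax vs DMSO.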

BRAF G466V = molecular target: T4, BRAF G466V (Homo sapiens, UniProt P15056, G466V); experiment: BRAF HiBiT degradation assay, C-terminal HiBiT-tagged BRAF G466V overexpressed in HCT-116 BRAF−/− cells (clone 8), Nano-Glo HiBiT Lytic assay; conditions: BRAF G466V (Class 3), HCT-116 BRAF−/− cells; for DC50: DC50 at 50% degradation; for Dmax: observed Dmax relative to DMSO control
T4 construct: Horizon Discovery (HCT-116 BRAF−/− cells); host or cells: HCT-116 BRAF−/− cells, clone 8, lentiviral transduction
From the text: as §1, §2, §3, §4, §5, §6, §7

T1 sequence (P15056 whole entry G469A): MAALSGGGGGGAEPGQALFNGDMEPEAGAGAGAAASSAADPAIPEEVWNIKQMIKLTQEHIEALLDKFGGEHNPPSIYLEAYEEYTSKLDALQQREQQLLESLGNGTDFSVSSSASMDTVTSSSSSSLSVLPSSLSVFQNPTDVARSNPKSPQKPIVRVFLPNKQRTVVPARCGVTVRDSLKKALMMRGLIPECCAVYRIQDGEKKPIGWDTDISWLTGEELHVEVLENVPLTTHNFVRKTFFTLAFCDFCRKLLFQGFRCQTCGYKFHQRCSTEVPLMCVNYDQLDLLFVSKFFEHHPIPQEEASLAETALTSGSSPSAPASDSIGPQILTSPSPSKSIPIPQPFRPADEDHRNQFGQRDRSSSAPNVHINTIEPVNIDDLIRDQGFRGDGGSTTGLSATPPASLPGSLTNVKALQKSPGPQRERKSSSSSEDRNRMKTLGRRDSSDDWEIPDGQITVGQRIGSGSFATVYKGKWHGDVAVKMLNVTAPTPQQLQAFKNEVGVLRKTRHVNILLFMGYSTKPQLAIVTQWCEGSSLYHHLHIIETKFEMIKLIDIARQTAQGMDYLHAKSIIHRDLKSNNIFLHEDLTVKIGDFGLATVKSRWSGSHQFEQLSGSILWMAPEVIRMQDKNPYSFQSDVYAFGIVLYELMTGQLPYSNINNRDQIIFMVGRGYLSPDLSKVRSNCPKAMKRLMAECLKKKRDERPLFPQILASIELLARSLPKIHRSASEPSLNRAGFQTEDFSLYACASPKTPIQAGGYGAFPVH
T3 sequence (P15056 whole entry V600E, the tested form may be a part): as the sequence (P15056 whole entry G469A) above, with A469G, V600E counted along it
T4 sequence (P15056 whole entry G466V): as the sequence (P15056 whole entry G469A) above, with G466V, A469G counted along it
T2 sequence (P15056 whole entry D594G): as the sequence (P15056 whole entry G469A) above, with A469G, D594G counted along it

| SMILES | DC50 (BRAF G469A) [nM] | Dmax (BRAF G469A) [%] | DC50 (BRAF D594G) [nM] | Dmax (BRAF D594G) [%] | DC50 (BRAF V600E) [nM] | Dmax (BRAF V600E) [%] | DC50 (BRAF G466V) [nM] | Dmax (BRAF G466V) [%] |
| --- | --- | --- | --- | --- | --- | --- | --- | --- |
| O=C1CC[C@H](c2ccc(N3CCC(CN4CCN(c5ccc(-n6cc(-c7cc(F)cc(NS(=O)(=O)N8CC[C@@H](F)C8)c7F)c(-c7ccncc7)n6)nc5)CC4)CC3)nc2)C(=O)N1 [Compound 305, (3R)—N-{3-[1-(5-{4-[(1-{5-[(3R)-2,6-dioxopiperidin-3-yl]pyridin-2-yl}piperidin-4-yl)methyl]piperazin-1-yl}pyridin-2-yl)-3-(pyridin-4-yl)-1H-pyrazol-4-yl]-2,5-difluorophenyl}-3-fluoropyrrolidine-1-sulfonamide] | < 10 | > 70 | < 10 | > 70 | < 10 | > 70 | < 10 | > 70 |
| C[C@@H]1CN(c2ccc(-n3cc(-c4cc(Cl)cc(NS(=O)(=O)N5CCCC5)c4F)c(-c4ccncc4)n3)cc2)CCN1CC1CCN(c2ccc([C@H]3CCC(=O)NC3=O)cc2)CC1 [Compound 316, N-[5-chloro-3-(1-{4-[(3R)-4-[(1-{4-[(3R)-2,6-dioxopiperidin-3-yl]phenyl}piperidin-4-yl)methyl]-3-methylpiperazin-1-yl]phenyl}-3-(pyridin-4-yl)-1H-pyrazol-4-yl)-2-fluorophenyl]pyrrolidine-1-sulfonamide] | 10 to 50 | > 70 | < 10 | 30 to 70 | < 10 | > 70 | < 10 | > 70 |
| CCCS(=O)(=O)Nc1cccc(-c2nc(C3CCC4(CC3)CCN(CC3CCN(c5ccc(C6CCC(=O)NC6=O)cn5)CC3)CC4)sc2-c2ccnc(N)n2)c1F (racemic) [Compound 260, Rac-N-{3-[5-(2-aminopyrimidin-4-yl)-2-{3-[(1-{5-[(3R)-2,6-dioxopiperidin-3-yl]pyridin-2-yl}piperidin-4-yl)methyl]-3-azaspiro[5.5]undecan-9-yl}-1,3-thiazol-4-yl]-2-fluorophenyl}propane-1-sulfonamide] | > 500 | < 30 | > 500 | < 30 | 10 to 50 | 30 to 70 | > 500 | < 30 |
| CCN(C)S(=O)(=O)Nc1cc(Cl)cc(-c2cn(-c3ccc(N4CCN(CC5CCN(c6ccc(N7CCC(=O)NC7=O)cc6)CC5)CC4)cc3)nc2-c2ccncc2)c1F [Compound 307, 1-(4-{4-[(4-{4-[4-(5-chloro-3-{[ethyl(methyl)sulfamoyl]amino}-2-fluorophenyl)-3-(pyridin-4-yl)-1H-pyrazol-1-yl]phenyl}piperazin-1-yl)methyl]piperidin-1-yl}phenyl)-1,3-diazinane-2,4-dione] | 50 to 500 | 30 to 70 | 10 to 50 | 30 to 70 | < 10 | > 70 | < 10 | > 70 |
